Assay results as given in PubChem BioAssay (NCI).
Values joined by “and” are separate entries in the source; they are usually repeats but may differ in a detail not shown here. Identical values can stand only once.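 Each compound was tested at five concentrations against cells in 96-well plates for 48 hours. GI50 is the concentration that inhibits growth by half. TGI: total growth inhibition.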

Tests used:
Experiment in all cases: NCI tumour cell line growth inhibition, 48 h
[1] = test system: HCT-15 colon
[2] = test system: SF-295 CNS
[3] = test system: K-562 leukemia
[4] = test system: A498 renal
[5] = test system: MALME-3M melanoma
[6] = test system: A549 NSCLC
[7] = test system: HCT-116 colon
[8] = test system: OVCAR-8 ovarian
[9] = test system: HS 578T breast
[10] = test system: MOLT-4 leukemia

SMILES	GI50 [1]	TGI [1]	GI50 [2]	TGI [2]	GI50 [3]	TGI [3]	GI50 [4]	TGI [4]	GI50 [5]	TGI [5]	GI50 [6]	GI50 [7]	TGI [7]	GI50 [8]	TGI [8]	GI50 [9]	TGI [9]	GI50 [10]	TGI [10]	TGI [6]
CCN(CC)c1ccc(-c2cc(-c3cc(OC)c(OC)c(OC)c3)nc(N3CCC(O)CC3)c2C#N)cc1	0.26 µM	1.93 µM	0.169 µM	0.435 µM	0.353 µM	2.13 µM	1.07 µM	14.2 µM	0.303 µM	1.18 µM	0.326 µM	0.281 µM	1.71 µM	0.441 µM	7.44 µM	3.94 µM	> 100 µM	0.621 µM	5.17 µM	
COc1ccc(-c2cc(-c3ccc(Cl)cc3)nc(NCCCCNc3ccnc4cc(Cl)ccc34)n2)cc1	1.69 µM	3.71 µM	8.02 µM	24.2 µM	1.83 µM	5.02 µM	4.17 µM	17.4 µM	1.75 µM	3.36 µM	1.87 µM	1.5 µM	2.92 µM	1.9 µM	4.28 µM	14.6 µM	38.9 µM	2.65 µM	8.28 µM	3.9 µM
O=C1Cc2cc(CCn3cncn3)c(Cl)cc2N1	9.59 µM	> 100 µM	37.1 µM	> 100 µM	7.68 µM	> 100 µM	32.5 µM	> 100 µM	> 100 µM	> 100 µM	16.5 µM	32 µM	> 100 µM	69.4 µM	> 100 µM	0.72 µM	> 100 µM	> 100 µM	> 100 µM	> 100 µM
NC(Cc1c[nH]c2ccc([N+](=O)[O-])cc12)C(=O)O (stereo not drawn)		> 100 µM		> 100 µM		> 100 µM		> 100 µM		> 100 µM			> 100 µM		> 100 µM		> 100 µM		> 100 µM	> 100 µM
COc1cc(-c2nc3ccccc3o2)cc(CN2CCCCC2)c1O	1.05 µM	26 µM	1.85 µM	6.6 µM	8.18 µM	> 100 µM	10 µM	24.5 µM	1.8 µM	3.87 µM	1.63 µM	4.27 µM	35.4 µM	11.4 µM	94.3 µM	2.37 µM	7.44 µM	4.99 µM	37.4 µM	4.12 µM
Cc1ccc(-c2nc(-c3nccc4ccccc34)oc2-c2ccccc2)cc1		> 100 µM		> 100 µM		> 100 µM		> 100 µM		> 100 µM			> 100 µM		> 100 µM		> 100 µM		> 100 µM	> 100 µM
Cc1c2ccncc2c(C)c2c1sc1ccccc12		31 µM		26.4 µM		41.1 µM		23.1 µM		29.1 µM			15.8 µM		25.1 µM		39.5 µM		7.28 µM	18.3 µM
O=C(/C=C/c1ccccn1)c1ccc(OCc2nnc(-c3ccc(Cl)cc3)o2)cc1	1.62 µM	3.36 µM	1.68 µM	3.33 µM	2 µM	4.8 µM	4.5 µM	17.2 µM	2.28 µM	4.46 µM	2.06 µM	0.45 µM	1.62 µM	2.48 µM	5.57 µM	3.33 µM	10.3 µM	2.91 µM	6.68 µM	4.82 µM
Cn1cc(C2=C(c3cn(CCCN)c4ccccc34)C(=O)NC2=O)c2ccccc21	5.14 µM	> 25 µM	7.38 µM	> 25 µM	4.29 µM	14.6 µM	3.92 µM	9.18 µM	5.66 µM	10.6 µM	5.65 µM	3.48 µM	10.1 µM	5.46 µM	14.7 µM	3.91 µM	16.8 µM	6.06 µM	18.5 µM	17.4 µM
O=C(Nc1ccccc1)OC1OC(COC(=O)c2ccccc2)C(OC(=O)c2ccccc2)C1OS(=O)(=O)c1ccc([N+](=O)[O-])cc1 (stereo not drawn)		> 100 µM		> 100 µM		> 100 µM		> 100 µM		> 100 µM			> 100 µM		> 100 µM		> 100 µM		> 100 µM	> 100 µM
Cc1nc2sc3c(N)ncnc3c2c(C)c1C	> 25 µM	> 25 µM	> 25 µM	> 25 µM	> 25 µM	> 25 µM	> 25 µM	> 25 µM	> 25 µM	> 25 µM	> 25 µM	> 25 µM	> 25 µM	> 25 µM	> 25 µM	24.9 µM	> 25 µM	> 25 µM	> 25 µM	> 25 µM
Cn1c(=O)c(Oc2ccc(F)cc2F)cc2cnc(N[C@@H]3CCOC3)nc21	> 25 µM	> 25 µM	> 25 µM	> 25 µM	> 25 µM	> 25 µM	> 20.4 µM	> 25 µM	> 25 µM	> 25 µM	> 25 µM	> 25 µM	> 25 µM	> 25 µM	> 25 µM	> 25 µM	> 25 µM	> 25 µM	> 25 µM	> 25 µM
Clc1ccc2c(c1)N(C1CCCN(Cc3ccccc3)C1)c1ccccc1S2 (stereo not drawn)	4.12 µM	> 100 µM	2.44 µM	6.82 µM	3.19 µM	> 100 µM	14.7 µM	> 100 µM	3.88 µM	39.9 µM	4.94 µM	2.92 µM	11.5 µM	6.36 µM	> 100 µM	2.12 µM	6.07 µM	16.6 µM	> 100 µM	> 100 µM
O=C1NC2(CCCCC2)C(=O)N1CCN(CCCl)CCCl	> 25 µM and 200 µM	> 242 µM	> 25 µM and 138 µM	> 250 µM	> 25 µM	> 250 µM	> 25 µM	> 250 µM	> 25 µM	> 194 µM	> 25 µM	> 25 µM	> 250 µM	> 25 µM	> 25 µM and 173 µM		> 25 µM	7.1 µM	22.5 µM and 196 µM	> 250 µM
Fc1ccc(-c2nn3ccccc3c2-c2ccncc2)cc1	> 25 µM	> 25 µM	> 25 µM	> 25 µM	> 25 µM	> 25 µM	> 18.3 µM	> 25 µM	> 25 µM	> 25 µM	> 25 µM	> 25 µM	> 25 µM	> 25 µM	> 25 µM	> 25 µM	> 25 µM	> 25 µM	> 25 µM	> 25 µM
c1ccc(Oc2ccc(Nc3ncc(-c4ccccc4)o3)cc2)cc1	> 25 µM	> 25 µM	> 25 µM	> 25 µM	> 25 µM	> 25 µM	> 25 µM	> 25 µM	> 25 µM	> 25 µM	> 25 µM	> 25 µM	> 25 µM	> 25 µM	> 25 µM	> 25 µM	> 25 µM	> 25 µM	> 25 µM	> 25 µM
Nc1ncc(-c2ccc3ncnc(N4CCc5ccc(Cl)cc54)c3c2)cc1C(F)(F)F	1.3 µM	22.6 µM	1.4 µM	16.5 µM	3.98 µM	> 100 µM	0.301 µM	2.52 µM	0.919 µM	6.22 µM	1.29 µM	2.53 µM	16.6 µM	2.15 µM	22.6 µM	0.326 µM	3.05 µM	1.63 µM	> 100 µM	14 µM
